From patent US5036157A, “Aryl derivatives” (Burroughs Wellcome Co., priority 1987, dated 1991)

Columns and labels:
5-lipoxygenase (LO) = molecular target: T1, 5-lipoxygenase (LO) (Homo sapiens, UniProt P09917); experiment: In vitro inhibition of 5-lipoxygenase (LO); leukocyte homogenate with arachidonic acid, radioimmunoassay for leukotriene B4; type: biochemical; settings: homogenised leukocytes from aspirin-free volunteers, 5 μM arachidonic acid, 37°, 5 minutes; leukotriene B4 (LO product)
T1 construct: The leukocytes were homogenised and 5 μM arachidonic acid added; endogenous in cells; host or cells: homogenate of leukocytes from blood of normal aspirin-free volunteers
T1 sequence (P09917 1-674): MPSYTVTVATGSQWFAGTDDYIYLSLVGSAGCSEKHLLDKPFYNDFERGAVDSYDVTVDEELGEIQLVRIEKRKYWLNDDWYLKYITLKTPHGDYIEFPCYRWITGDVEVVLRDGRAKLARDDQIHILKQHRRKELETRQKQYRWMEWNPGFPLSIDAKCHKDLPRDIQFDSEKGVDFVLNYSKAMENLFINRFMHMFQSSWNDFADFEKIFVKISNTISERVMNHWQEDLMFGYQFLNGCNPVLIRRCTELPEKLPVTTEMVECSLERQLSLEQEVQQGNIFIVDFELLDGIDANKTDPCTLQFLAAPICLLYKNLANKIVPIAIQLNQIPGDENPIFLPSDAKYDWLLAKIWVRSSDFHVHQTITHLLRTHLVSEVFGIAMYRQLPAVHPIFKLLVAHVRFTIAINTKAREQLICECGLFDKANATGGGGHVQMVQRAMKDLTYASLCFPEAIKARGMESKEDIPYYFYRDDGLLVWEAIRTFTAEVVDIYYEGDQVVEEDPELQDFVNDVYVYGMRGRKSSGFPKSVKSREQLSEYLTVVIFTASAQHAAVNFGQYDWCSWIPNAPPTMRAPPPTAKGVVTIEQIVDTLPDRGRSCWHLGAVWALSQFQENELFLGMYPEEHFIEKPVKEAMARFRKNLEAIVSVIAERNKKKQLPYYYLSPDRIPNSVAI
Method: (§1) In vitro inhibition of 5-lipoxygenase (LO) and Cyclooxygenase (CO)
(§2) Blood from normal aspirin-free volunteers was centrifuged to separate leukocytes from red cells and platelets. The leukocytes were homogenised and 5 μM arachidonic acid added, followed by incubation at 37° for 5 minutes. The reaction was stopped by boiling. Radioimmunassay was conducted for leukotriene B4 (an LO product) and thomboxane B4 (a CO product). Results were calculated as IC50 μM activity against each enzyme and as listed below.

Cyclooxygenase (CO) = molecular target: T2, Cyclooxygenase (CO) (Homo sapiens, UniProt P23219); experiment: In vitro inhibition of Cyclooxygenase (CO); leukocyte homogenate with arachidonic acid, radioimmunoassay for thromboxane; type: biochemical; settings: homogenised leukocytes from aspirin-free volunteers, 5 μM arachidonic acid, 37°, 5 minutes; thomboxane B4 (CO product)
T2 construct: The leukocytes were homogenised and 5 μM arachidonic acid added; endogenous in cells; host or cells: homogenate of leukocytes from blood of normal aspirin-free volunteers
T2 sequence (P23219 24-599): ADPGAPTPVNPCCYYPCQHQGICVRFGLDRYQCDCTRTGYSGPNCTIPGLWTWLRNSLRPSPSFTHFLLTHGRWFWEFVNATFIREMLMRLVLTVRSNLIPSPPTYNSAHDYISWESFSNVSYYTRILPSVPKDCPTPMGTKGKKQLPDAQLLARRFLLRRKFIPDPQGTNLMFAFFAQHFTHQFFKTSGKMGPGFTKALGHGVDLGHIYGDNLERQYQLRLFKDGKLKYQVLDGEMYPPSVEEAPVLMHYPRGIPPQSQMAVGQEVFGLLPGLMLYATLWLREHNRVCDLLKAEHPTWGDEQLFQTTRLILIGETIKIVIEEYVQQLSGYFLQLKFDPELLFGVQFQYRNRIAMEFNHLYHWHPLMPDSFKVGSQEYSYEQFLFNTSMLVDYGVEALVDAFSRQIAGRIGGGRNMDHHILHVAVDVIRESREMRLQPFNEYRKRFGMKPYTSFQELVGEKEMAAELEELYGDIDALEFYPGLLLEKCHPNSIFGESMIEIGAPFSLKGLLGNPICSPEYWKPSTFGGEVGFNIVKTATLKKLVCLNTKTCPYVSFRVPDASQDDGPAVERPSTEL
Method: as §1, §2

IC50 (5-lipoxygenase (LO)): < 0.1 µM
IC50 (Cyclooxygenase (CO)): 3 µM
SMILES: CN(O)C(=O)C=Cc1cccc(Oc2ccccc2)c1 [Example 1, 3-Phenoxy-N-methylcinnamohydroxamic Acid]
